Results on six compounds are retold here after patent US12653821B2 (SHANGHAI BOCIMED PHARMACEUTICAL CO., LTD., priority 2020, dated 2026).

Values after ≈ are worked out from the molar mass of the structure shown.

Data set [1] in a line: In vitro dissolution simulation experiment, pH 7.4 phosphate buffer. It is filed as physicochemical. Conditions: 37° C. Here is the method:
The mixtures were shaken at 37° C.

A short description of data set [2]: physchem. Conditions: 37 °C, thermodynamic from solid. As to the method:
The mixtures were shaken at 37° C. for 24 h and filtered through 0.45 μm aqueous-phase filter membranes. The filtrates were collected and the solubility was determined by high performance liquid chromatography. pH3, pH4, pH5 and pH6 represent acetate buffer solutions, and pH7, pH7.4, pH8 and pH9 represent phosphate buffer solutions.

The conditions of data set [3]: humans; cited from earlier work.
Data set [4] can be described thus: Pharmacokinetic experiment in rats (plasma cariprazine, LC-MS/MS). The conditions noted are these: intramuscular injection at 9 mg/kg.
Protocol: In the whole experiment, the animals from the intramuscular injection group were given ad libitum access to food and water, and those from the oral intragastrical group were fasted overnight before administration and given access to food 4 h after administration.
Plasma sample collection: about 150 μL of blood was collected from the jugular vein (whole blood was centrifuged within 30 min to isolate plasma) and placed in a tube containing anticoagulant EDTA-K2, and after treatment, plasma was stored in a freezer at −70° C. before use.
Pretreatment of plasma sample: to 30 μL of plasma sample was added 200 μL of internal standard solution (40 ng/mL Glipizide acetonitrile solution); the mixture was vortexed for 1 min and centrifuged at 5800 rpm at 4° C. for 10 min; 100 μL of supernatant was transferred to a new plate and 1 μL of solution was taken for LC-MS/MS analysis.
Secondary mass spectrometry analysis was performed using an electrospray ion source (Turbo spray) in the multiple reaction monitoring (MRM) mode under the positive ion detection mode.

Turning to `CN(C)C(=O)NC1CCC(CCN2CCN(c3cccc(Cl)c3Cl)CC2)CC1` (centres unmarked) [Amorphous cariprazine embonate, cariprazine embonate], in data set [1], the “Concentration, 1 (h)” value is 11940 ng/mL; the “Concentration, 5 (h)” value is 9580 ng/mL; the “Concentration, 7 (h)” value was 7080 ng/mL; the “Concentration, 24 (h)” value was 9900 ng/mL.
For `CN(C)C(=O)NC1CCC(CCN2CCN(c3cccc(Cl)c3Cl)CC2)CC1` (centres unmarked) [Crystalline form B of cariprazine embonate] the same measures were 5300 ng/mL, 5200 ng/mL, 2200 ng/mL and 1700 ng/mL.
By solubility is commonly meant how much of the substance goes into solution per volume. A lower solubility goes with little dissolved substance. In the case of `CN(C)C(=O)N[C@H]1CC[C@H](CCN2CCN(c3cccc(Cl)c3Cl)CC2)CC1.Cl` [Cariprazine hydrochloride], the solubility at 24 h in data set [2] (pH 5, aqueous buffer) came out at 10800 µg/mL.
In the case of `CN(C)C(=O)NC1CCC(CCN2CCN(c3cccc(Cl)c3Cl)CC2)CC1` (centres unmarked) [Crystalline form G of cariprazine embonate], in data set [1], the “Concentration, 1 (h)” value was 1300 ng/mL; the “Concentration, 5 (h)” value is 2280 ng/mL; the “Concentration, 7 (h)” value is 1840 ng/mL; the “Concentration, 24 (h)” value was 8050 ng/mL.
Turning to `CN(C)C(=O)N[C@H]1CC[C@H](CCN2CCN(c3cccc(Cl)c3Cl)CC2)CC1` [Cariprazine, cariprazine], in data set [3], the cariprazine clearance was 3 to 9 days. For the same compound, the solubility at 24 h in data set [2] (pH 3, aqueous buffer) turned out to be 1360 µg/mL (≈ 3190 µM); in data set [2] (pH 5, aqueous buffer), 243 µg/mL (≈ 568 µM); in data set [2] (pH 7, aqueous buffer) it was 3.2 µg/mL (≈ 7.49 µM); in data set [2] (pH 9, aqueous buffer), 1.4 µg/mL (≈ 3.28 µM).
For `CN(C)C(=O)NC1CCC(CCN2CCN(c3cccc(Cl)c3Cl)CC2)CC1` (centres unmarked) [Crystalline form A of cariprazine embonate], the “length of release among the crystalline forms” value in data set [4] is recorded as “best length of release”. Further, in data set [1], the “Concentration, 1 (h)” value was 1000 ng/mL; the “Concentration, 5 (h)” value was 4100 ng/mL; the “Concentration, 7 (h)” value was 3900 ng/mL; the “Concentration, 24 (h)” value is 2500 ng/mL.
